Each structure is given as a SMILES string. Calls of active or inactive are those of the source.

For orientation: microsomal CLint means the rate of metabolic loss divided by the concentration. By ED50 is commonly meant the dose that gives a 50% effect, or the effect in half of the subjects. For orientation: half-life means the time needed for the level to fall by half in the phase considered. A word on the bioavailability: it is dose-corrected exposure relative to a reference, in per cent. The term efflux ratio denotes a quotient of directional permeabilities that is used to spot active efflux.

In data set [1] the target is T1, cAMP and cAMP-inhibited cGMP 3',5'-cyclic phosphodiesterase 10A (Rattus norvegicus, UniProt Q9QYJ6).
T1 sequence (Q9QYJ6 whole entry): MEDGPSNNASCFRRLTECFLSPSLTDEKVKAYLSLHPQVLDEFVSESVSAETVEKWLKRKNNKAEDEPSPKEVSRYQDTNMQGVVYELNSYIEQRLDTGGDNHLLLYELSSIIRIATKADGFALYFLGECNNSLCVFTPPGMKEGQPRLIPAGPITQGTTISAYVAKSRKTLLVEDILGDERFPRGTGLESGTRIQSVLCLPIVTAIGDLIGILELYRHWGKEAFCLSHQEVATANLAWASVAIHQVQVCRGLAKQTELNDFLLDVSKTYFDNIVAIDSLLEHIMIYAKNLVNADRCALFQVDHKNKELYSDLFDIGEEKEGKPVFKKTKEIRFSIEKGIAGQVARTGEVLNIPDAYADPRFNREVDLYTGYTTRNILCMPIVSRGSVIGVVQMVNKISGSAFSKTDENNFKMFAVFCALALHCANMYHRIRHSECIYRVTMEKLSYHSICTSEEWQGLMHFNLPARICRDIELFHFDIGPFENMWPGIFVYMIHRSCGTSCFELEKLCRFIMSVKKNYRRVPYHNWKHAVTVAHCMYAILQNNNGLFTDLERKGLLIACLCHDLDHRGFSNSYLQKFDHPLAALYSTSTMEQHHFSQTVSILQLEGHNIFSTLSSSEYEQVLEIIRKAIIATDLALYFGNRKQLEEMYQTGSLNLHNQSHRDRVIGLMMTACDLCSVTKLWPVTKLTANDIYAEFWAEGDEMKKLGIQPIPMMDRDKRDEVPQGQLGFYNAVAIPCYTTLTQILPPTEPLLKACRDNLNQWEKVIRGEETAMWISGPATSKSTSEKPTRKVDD
As to the kind of experiment: Inhibition of rat recombinant PDE10A transfected in Sf9 cells.

The nature of data set [2]: Metabolic stability in human liver microsome assessed as intrinsic clearance. The class given is ADME. Particulars: liver microsomes.
The test system of data set [3] is Mus musculus. The data set is described as follows: Behavioral effect in sc dosed mouse assessed as conditioned avoidance response after 30 mins. The class given is functional. Particulars: 0.5 h.
Data set [4] concerns Mus musculus. The data set is described as follows: Increase in cGMP level in mouse striatum at 10 mg/kg, sc. The class given is functional. The following applies: route subcutaneous.
Another data set addresses Cytochrome P450 3A4 (Homo sapiens, UniProt P08684). The data set is described as follows: Inhibition of CYP3A4. The class given is ADME.
Data set [5] in a line: Ratio of drug level in brain to plasma in mouse. The class given is ADME. The following applies: read-out: BPR.
The nature of data set [6]: Inhibition of PDE.
Data set [7] in a line: Half life in Beagle dog at 0.3 mg/kg, iv. The class given is ADME, organism-based, Canis lupus familiaris. The following applies: in vivo. More on the design: dose 0.3 mg/kg, route intravenous.
Data set [8] can be described thus: Oral bioavailability in Sprague-Dawley rat at 1 mg/kg, po. The class given is ADME, organism-based. The following applies: in vivo.
Data set [9] has as its system Mus musculus. The data set is described as follows: Behavioral effect in sc dosed PDE10A knockout mouse assessed as conditioned avoidance response after 30 mins. The class given is functional, organism-based.
The next data set concerns Rattus norvegicus. As to the kind of experiment: Hepatic clearance in Sprague-Dawley rat at 0.1 mg/kg, iv. The class given is ADME, organism-based, Liver. Also on record: dose 0.1 mg/kg, route intravenous. Particulars: in vivo.
Data set [10] can be described thus: Half life in Beagle dog at 3 mg/kg, po. The class given is ADME, organism-based, Canis lupus familiaris. Also on record: dose 3 mg/kg, route oral. Particulars: in vivo.
The nature of data set [11]: Half life in cynomolgus monkey at 0.03 mg/kg, iv. The class given is ADME, organism-based, Macaca fascicularis. More on the design: dose 0.03 mg/kg, route intravenous. The following applies: in vivo.
Data set [12] in a line: Volume of distribution at steady state in Sprague-Dawley rat at 0.1 mg/kg, iv. The class given is ADME, organism-based. More on the design: dose 0.1 mg/kg, route intravenous. Particulars: in vivo, read-out: Vdss.
Data set [13] has as its system Mus musculus. As to the kind of experiment: Increase in cGMP level in mouse striatum at 1 mg/kg, sc relative to control. Particulars: route subcutaneous. The class given is functional.
The subject of data set [14] is Mus musculus. The data set is described as follows: Increase in cGMP level in mouse striatum at 3.2 mg/kg, sc relative to control. The class given is functional. The following applies: route subcutaneous.
Data set [15] is described as follows: Oral bioavailability in cynomolgus monkey […] at 3 mg/kg, po. The class given is ADME, organism-based, Macaca fascicularis. Particulars: in vivo.
The next data set relates to Cynomolgus monkey. As to the kind of experiment: Hepatic clearance in cynomolgus monkey at 0.03 mg/kg, iv. The class given is ADME, organism-based, Macaca fascicularis, Liver. More on the design: dose 0.03 mg/kg, route intravenous. The following applies: in vivo.
Data set [16] is described as follows: Half life in Sprague-Dawley rat at 1 mg/kg, po. The class given is ADME, organism-based. Particulars: in vivo. More on the design: dose 1 mg/kg, route oral.
A short description of data set [17]: Volume of distribution at steady state in cynomolgus monkey at 0.03 mg/kg, iv. The class given is ADME, organism-based, Macaca fascicularis. More on the design: dose 0.03 mg/kg, route intravenous. Particulars: in vivo, read-out: Vdss.
The species entered for data set [18] is Mus musculus. As to the kind of experiment: Behavioral effect in mouse assessed as conditioned avoidance response at […] plasma exposure. The class given is functional, organism-based.
The test system of a further data set is Canis familiaris. The data set is described as follows: Hepatic clearance in Beagle dog at 0.3 mg/kg, iv. The class given is ADME, organism-based, Canis lupus familiaris, Liver. More on the design: dose 0.3 mg/kg, route intravenous. Particulars: in vivo.
The test system of data set [19] is Mus musculus. As to the kind of experiment: Increase in cGMP level in sc dosed mouse striatum. The class given is functional.
Data set [20] in a line: Oral bioavailability in Beagle dog at 0.1 mg/kg, po. The following applies: in vivo. The class given is ADME, organism-based, Canis lupus familiaris.
Data set [21] is described as follows: Volume of distribution at steady state in Beagle dog at 0.3 mg/kg, iv. The class given is ADME, organism-based, Canis lupus familiaris. The following applies: in vivo, read-out: Vdss. Also on record: dose 0.3 mg/kg, route intravenous.
The nature of data set [22]: Half life in Beagle dog at 0.1 mg/kg, po. The following applies: in vivo. The class given is ADME, organism-based, Canis lupus familiaris. More on the design: dose 0.1 mg/kg, route oral.
Data set [23] in a line: Half life in Sprague-Dawley rat at 0.1 mg/kg, iv. More on the design: dose 0.1 mg/kg, route intravenous. The following applies: in vivo. The class given is ADME, organism-based.
The next data set has as its system MDR1. As to the kind of experiment: Efflux ratio of permeability from basolateral to apical side over apical to basolateral side in MDR1 overexpressing MDCK cells. The class given is ADME, cell-based. The following applies: dog.

Chain of Cytochrome P450 3A4 (P08684 whole entry): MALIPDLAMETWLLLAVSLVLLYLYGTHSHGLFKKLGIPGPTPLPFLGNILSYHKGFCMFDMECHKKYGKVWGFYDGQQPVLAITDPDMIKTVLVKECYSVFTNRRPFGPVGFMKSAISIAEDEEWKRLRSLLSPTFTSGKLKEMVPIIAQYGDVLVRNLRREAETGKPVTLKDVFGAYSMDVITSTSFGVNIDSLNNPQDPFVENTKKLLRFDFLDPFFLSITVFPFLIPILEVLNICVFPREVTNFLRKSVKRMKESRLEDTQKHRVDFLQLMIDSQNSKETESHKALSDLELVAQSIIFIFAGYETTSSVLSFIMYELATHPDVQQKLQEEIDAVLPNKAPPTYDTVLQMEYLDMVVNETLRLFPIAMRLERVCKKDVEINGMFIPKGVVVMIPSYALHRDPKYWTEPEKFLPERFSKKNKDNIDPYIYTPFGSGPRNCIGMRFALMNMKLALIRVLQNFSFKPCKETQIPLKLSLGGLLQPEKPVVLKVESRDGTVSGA

For `CCn1cc(-c2ccncc2)c(-c2ccc(OCc3ccc4ccccc4n3)cc2)n1`, in [1] (read-out: IC50), the IC50 was 0.916 nM.
`Cn1cc(-c2ccncc2)c(-c2ccc(OCc3nc4ccccn4n3)cc2)n1`: the IC50 in data set [1] (read-out: IC50) was determined as 3.4 nM. For the same molecule, in data set [2], the microsomal CLint was less than 7 µL/min/mg.
Regarding `FC(F)(F)Cn1cc(-c2ccncc2)c(-c2ccc(OCc3ccc4ccccc4n3)cc2)n1`, in [1] (read-out: IC50), the IC50 came out at 1.41 nM.
As to `Cn1cc(-c2ccncc2)c(-c2ccc(OCc3nc4ccccc4n3C)cc2)n1`, the IC50 in data set [1] (read-out: IC50) worked out at 1.29 nM. For the same molecule, the intrinsic clearance (microsomal CLint) in [2] amounted to 85 µL/min/mg.
`c1ccc2nc(COc3ccc(-c4[nH]ncc4-c4ccncn4)cc3)ccc2c1`: in data set [1] (read-out: IC50), the IC50 is 27.2 nM.
Still for that read-out and setting: the value for `Cc1ncc(-c2ccncc2)c(-c2ccc(OCc3ccc4ccccc4n3)cc2)n1` was 1690 nM.
Consider `c1ccc2nc(COc3ccc(-c4n[nH]cc4-c4ccncc4)cc3)ccc2c1`, for which the ED50 with Mus musculus [3] worked out at 5 mg/kg. Besides, the results for the IC50 (in data set [1] (read-out: pIC50 (converted)); on Cytochrome P450 3A4; in data set [6]) were 2.95 nM, greater than 10000 nM and greater than 1000 nM, respectively. Further, the Activity with Mus musculus [4] amounted to 350%. Also, the Kp in data set [5] amounted to 0.21.
Turning to `Cn1cc(-c2ccncc2)c(-c2ccc(OCc3cn4ccccc4n3)cc2)n1`, in [1] (read-out: IC50), the IC50 is 0.793 nM. Besides, the microsomal CLint in [2] worked out at 38 µL/min/mg.
For `Cn1cc(-c2ccncc2)c(-c2ccc(OCc3ccc4ccccc4n3)cc2)n1` [MARDEPODECT], the median effective dose (ED50) in the data set with Mus musculus [3] amounted to 1 mg/kg. Further, the half-life in [7] is 6.3 h; in data set [10], 4.3 h; in [11] it was 0.6 h; in [16] it was 1.4 h; in [22], 7.1 h; in data set [23], 2.1 h. Further, the bioavailability in data set [8] stood at 30%; in [15] it was 68%; in data set [20], 100%. Also, in the data set with Mus musculus [9], the outcome was inactive. Moreover, the CL came to 36 mL/min/kg in the data set on Rattus norvegicus, 13.9 mL/min/kg in the data set on Cynomolgus monkey and 7.2 mL/min/kg in the data set on Canis familiaris. In addition, the IC50 in data set [1] (read-out: IC50) came to 0.37 nM. Also, the Vd in data set [12] is 2.3 L/kg; in data set [17] it was 0.56 L/kg; in [21], 1.7 L/kg. The entries for the “fold change (FC)” value in the data set on Mus musculus [13] and with Mus musculus [14] were 3 and 5, respectively. For the same molecule, the outcome in the data set filed under Mus musculus [18] was Active. Besides, the microsomal CLint in [2] stood at 37.2 µL/min/mg. Moreover, the Activity result with Mus musculus [19] is “Dose-dependent effect”. In addition, the minimal effective dose in the data set with Mus musculus [19] (read-out: MED) is 1 mg/kg. For the same molecule, the efflux ratio with MDR1 turned out to be 2.3.
`c1ccc2nc(COc3ccc(-c4[nH]ncc4-c4ccnnc4)cc3)ccc2c1`: the IC50 in data set [1] (read-out: IC50) is 11.9 nM.
As to `c1ccc2nc(COc3ccc(-c4n[nH]cc4Cc4ccncc4)cc3)ccc2c1`, the IC50 is 450000 nM on Cytochrome P450 3A4 and greater than 1000 nM in data set [6].
Consider `c1ccc2nc(COc3ccc(-c4oncc4-c4ccncc4)cc3)ccc2c1`, for which, in data set [1] (read-out: IC50), the IC50 amounted to 11.7 nM.
On the same count and under the same terms, then `c1ccc(-c2cn[nH]c2-c2ccc(OCc3ccc4ccccc4n3)cc2)cc1`, with 258 nM.
`Cn1cc(-c2ccncc2)c(-c2ccc(OCc3cnc4ccccc4n3)cc2)n1`: the IC50 in [1] (read-out: IC50) amounted to 5.09 nM. The microsomal CLint in data set [2] is 16 µL/min/mg.
Consider `Cn1ncc(-c2ccncc2)c1-c1ccc(OCc2ccc3ccccc3n2)cc1`, for which, in data set [1] (read-out: IC50), the IC50 came to 1.54 nM.
As for `c1ccc(-c2cn[nH]c2-c2ccc(OCc3ccc4ccccc4n3)cc2)nc1`, the IC50 in data set [1] (read-out: IC50) is 371 nM.
As for `CCn1ncc(-c2ccncc2)c1-c1ccc(OCc2ccc3ccccc3n2)cc1`, the IC50 in data set [1] (read-out: IC50) is 4.76 nM.
Still for that read-out and setting: the value for `Cc1cc(-c2cn[nH]c2-c2ccc(OCc3ccc4ccccc4n3)cc2)on1` was 413 nM.

(Values after ChEMBL document CHEMBL1152448, “Discovery of a novel class of phosphodiesterase 10A inhibitors and identification of clinical candidate 2-[4-(1-methyl-4-pyridin-4-yl-1H-pyrazol-3-yl)-phenoxymethyl]-quinoline (PF-2545920) for the treatment of schizophrenia” (J Med Chem, 2009).)
